Assay: gradient 5% acetonitrile 3 min, to 50% in 2 min, to 85% in 15 min, held 3 min, 100 µL/min
Settings: column: Zorbax Extend-C18 2.1 x 50 mm; eluents: water / acetonitrile, 0.1% formic acid
Summary of the method: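 The mobile phases were water and acetonitrile, each with 0.1% formic acid, pumped at 100 μL/min through a Zorbax Extend-C18 column (2.1 × 50 mm, 1.8 μm). Pure standards were injected as mixtures of ~100 molecules and detected by a quadrupole time-of-flight mass spectrometer in positive and negative ionization mode. Retention time came from computationally picked adduct peaks, each inspected by hand.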

RP-LC retention time	Structure (SMILES)
566 s	COC1C(=O)N(CC2CC2)C12CCN(C(=O)c1ccc(C)s1)CC2 (centres undefined)
671 s	COc1ccc2nccc(/C=C/c3ccnc4ccc(OC)cc34)c2c1
566 s	CN1C(=O)c2cccn2CC1C(=O)NCc1nc2ccccc2n1C (centres undefined)
666 s	COc1cccc(NC(=O)C2CCN(c3nnc4c(Cl)cccn34)CC2)c1
1280 s	Cc1ccc(C)c(N2CCN(C(=O)C3CCCN(c4nc5ccccc5n(C)c4=O)C3)CC2)c1 (centres undefined)
840 s	CCOc1ccc(C(=O)N(c2ccccc2CC)C2C=CS(=O)(=O)C2)cc1OCC (centres undefined)
800 s	Cn1nc(C(=O)N2CCCC(C(=O)Nc3ccccc3)C2)c2c1CCN(C(=O)CC1CCCC1)C2 (centres undefined)
792 s	COc1ccc(-c2noc(C3CCCN3C(=O)CNC(=O)c3ccccc3)n2)cc1 (centres undefined)
902 s	COc1ccc(-n2ncc3c(=O)n(Cc4nc(-c5ccccc5OC)no4)cnc32)cc1
805 s	O=c1ccc(-c2cccc(Cl)c2)nn1CCc1nc(-c2cccnc2)no1
656 s	O=C(c1ccccc1Cl)N1CCC2(CC1)OCC(C(=O)N1CCOCC1)N2C(=O)c1ccccc1 (centres undefined)
941 s	Cc1nc(N2CCN(C(=O)c3ccccc3)CC2)c(C#N)c2c1COC(C)(C)C2
942 s	CCn1c(=O)sc2cc(S(=O)(=O)N3CCC(C(=O)NCCc4ccccc4)CC3)ccc21
923 s	O=C(C1CCC1)N1CCc2sc(S(=O)(=O)NCc3ccccc3Cl)cc2C1
918 s	COC(=O)C1=C(C)NC2=C(C(=O)c3ccccc32)C1c1cccs1 (centres undefined)
1110 s	COc1ccccc1NS(=O)(=O)c1cc(-c2cc(C(F)(F)F)on2)sc1C
731 s	Cc1ccc(C)c(OCC(O)Cn2c(C3CC3)nc3ccccc32)c1 (centres undefined)
1050 s	COc1ccc(S(=O)(=O)N2CCc3nc(-c4ccc(F)cc4)ncc3C2)cc1
957 s	COc1cccc(CNC(=O)C2(C)CCCN(S(=O)(=O)c3ccccc3C)C2)c1 (centres undefined)
1100 s	Cc1cc(C)cc(NC(=O)C2CCN(c3c(C(=O)N4CCC(C)CC4)cnc4snc(C)c34)CC2)c1
885 s	Cc1cccc(-c2nc(N)n(C(=O)C3CC3)n2)c1
881 s	Cc1cccc(N2CCN(C(=O)C3CCN(c4cnc5nccnc5c4)CC3)CC2)c1C
876 s	Cn1nnc2ccc(-c3noc(-c4ccccc4F)n3)cc21

RP-LC retention time	Structure (SMILES)
659 s	COc1ccccc1C(CNC(=O)c1cc(=O)c2cc(C)cc(C)c2o1)N(C)C (centres undefined)
1160 s	CC(C)Cc1csc(-c2csc(S(=O)(=O)NCc3ccc(F)cc3)c2)n1
530 s	COc1ccccc1-c1ccc(N2CCC(C(=O)NN3CCOCC3)CC2)nn1
977 s	O=C(NC(=O)c1c(Cl)nc2sccn12)Nc1ccc(Cl)cc1
1310 s	CCn1c(C(=O)NCCC2=CCCCC2)cc2sc(Cl)cc21
1440 s	COC(=O)c1ccc2c(=O)n(-c3ccc(C)c(C)c3)c(N3CCC(C)CC3)nc2c1
871 s	COc1ccc(/C=C/c2nc(Cn3c(C)nc4ccccc4c3=O)no2)cc1
708 s	CCn1cc(CCN2CCN(S(=O)(=O)c3ccc(C)c(Cl)c3)CC2)c2cccnc21
975 s	Cc1ccc(-c2nnc(-c3nn(C)c4c3CN(S(=O)(=O)c3ccc5c(c3)OCCO5)CC4)o2)cc1
1250 s	Clc1cccc(-c2noc(Cc3nc(-c4ccc5c(c4)OCO5)cs3)n2)c1
632 s	O=C(NCC1CCN(c2ncccn2)CC1)Nc1ccc2c(c1)OCO2
806 s	O=C(NCCc1ccccc1)c1ccc2c(c1)NC(=O)C1CCCCN21 (centres undefined)
679 s	O=C(NCCc1ccccc1)N1C[C@@H]2C[C@H](NS(=O)(=O)c3cccnc3)[C@H]1C2
958 s	Cc1ccc(CNC(=O)C2CCN(c3nccnc3Sc3ccccc3)CC2)o1
902 s	Cc1noc(-c2ccc(NC(=O)c3cc(-c4ccco4)on3)cc2)n1
843 s	CC(=O)N1CCc2cc(-c3ccc(C(=O)NCCc4cccs4)cc3)ccc21
822 s	O=C(CCc1nnc2c3cc(-c4ccc(F)cc4)nn3ccn12)NCc1ccc(Cl)cc1
780 s	Cc1ccsc1C(=O)N1CCC2(CCCCO2)CC1
917 s	COc1ccc(N2CCN(C(=O)c3sc4ncccc4c3-n3cccc3)CC2)cc1
664 s	Cc1ccccc1N1CCn2c1nc1c2c(=O)n(CC(=O)O)c(=O)n1C
931 s	COc1cccc(C(=O)CSc2ccc(-n3nc(C)cc3C)nn2)c1
679 s	CC1CCNC2C1NC(=O)C1CCCNC1N2C1CC1 (centres undefined)
671 s	O=C(CC(F)(F)F)NCCc1noc(C2CC2)n1

RP-LC retention time	Structure (SMILES)
1170 s	Cc1ccc(N2CC(c3noc(-c4ccc(OC(F)(F)F)cc4)n3)CC2=O)cc1 (centres undefined)
876 s	CC(C)Cn1ccc2c(cc(C(=O)Nc3cc(F)ccc3F)n2C)c1=O
623 s	CCOC(=O)c1ccc(NC(=O)Cn2c(C)cc(=O)c3cc(Br)ccc32)cc1
870 s	O=C(Nc1cc(-c2ccccn2)no1)c1cccc(Cl)c1
594 s	O=C(NCCCn1ccnc1)C1CC(=O)N(CCc2c[nH]c3ccc(F)cc23)C1 (centres undefined)
563 s	CCN1CCN(CCCNC(=O)Cc2c(C(=O)O)c(C)cn2CC)CC1
723 s	COCCN1C(=O)CCc2cc(NS(=O)(=O)c3ccc(F)cc3F)ccc21
744 s	CN(C)c1ccc(CNC(=O)C2CCCN(c3nccnc3Sc3ccccc3)C2)cc1 (centres undefined)
1290 s	Clc1ccc(Sc2c(-c3ccc(Br)cc3)nc3ccccn23)cc1
1020 s	COc1ccc(N2CCN(c3cc(SCC(=O)Nc4ccc(C)cc4C)ncn3)CC2)cc1
695 s	CCc1ccc(NC(=O)N2CCc3nc(C)ncc3C2)cc1
816 s	Cc1cccc(CNC(=O)C2(C)Cn3cnc(C(=O)N(C)Cc4ccccc4)c3C(=O)N2C2CC2)c1 (centres undefined)
821 s	CCOC(=O)c1c(C)c(CCC(=O)NC(C)C)n(CC)c1C
734 s	O=C1C(c2cccs2)N(Cc2ccco2)C(=O)CN1c1ccccc1 (centres undefined)
786 s	CC(C)CCNc1ccc2nncn2n1
1050 s	COc1ccc(CN2C=C(C(=O)OCc3noc(-c4cccc(F)c4)n3)C(C)=NS2(=O)=O)cc1
843 s	Cc1nn(-c2ccc(Cl)cc2)c(C)c1S(=O)(=O)N1CCC(C(=O)NCC2CCCO2)CC1 (centres undefined)
651 s	Cc1cccc(Nc2nc(CC(=O)NCCOc3ccc(F)cc3)cs2)n1
1120 s	COc1cccc(-c2noc(C3CCCN3C(=O)Nc3ccc(C)cc3Cl)n2)c1 (centres undefined)
825 s	COc1ccc(CSc2nnc3c(S(=O)(=O)N4CCCC4)cccn23)cc1F
652 s	COc1ccc(NC(=O)N2C[C@@H]3C[C@H](NS(C)(=O)=O)[C@H]2C3)c(C)c1
938 s	Cc1sc(NC(=O)c2ccc(S(=O)(=O)N(C)C)cc2)nc1-c1ccc2c(c1)N(C)C(=O)CO2
662 s	COc1ccc(OC)c(Nc2c(C(=O)N3CCC(C)CC3)cnc3nc(C)ccc23)c1

RP-LC retention time	Structure (SMILES)
768 s	COC(=O)c1ccc(C(=O)Nc2nnc(Cc3ccc(C)cc3)o2)cc1
583 s	O=C(NCc1ccccc1Cl)C(=O)N1CCN(Cc2ccc3c(c2)OCO3)CC1
664 s	Cc1ccc(C)c(Nc2c(-c3ccc(O)cc3)nc3ncccn23)c1
763 s	CCSc1nnc(-c2nn(C)c3c2CN(C(=O)c2ccc(F)c(F)c2)CC3)n1C
730 s	COCCN1CCn2cc(S(=O)(=O)Nc3cc(C)ccc3C)cc2C1=O
698 s	COc1ccccc1NC(=O)Nc1ccc2nc3n(c(=O)c2c1)CCC3
939 s	CN(Cc1ccccc1)C(=O)CN1C(=O)C2CCCCN2c2ccc(S(=O)(=O)N(C)C)cc21 (centres undefined)
659 s	CCCn1cnnc1C1CCCCN1C(=O)NCc1ccc(OC)cc1 (centres undefined)
1320 s	CCCOc1nc2ccccc2nc1N1CCCC(C(=O)Nc2ccccc2CC)C1 (centres undefined)
821 s	Cc1ccc(N2CC(C(=O)Nc3cc(-c4ccco4)no3)CC2=O)cc1 (centres undefined)
565 s	Cc1cccc(NC(=O)C(=O)NCc2ccccn2)n1
979 s	Brc1c(Br)c(Br)c2[nH]cnc2c1Br
792 s	O=C(CN1C(=O)CCc2cc(Br)ccc21)Nc1ccc2c(c1)OCO2
611 s	O=C(c1ccc(-n2cccn2)nn1)N1CCN(C(=O)c2ccco2)CC1
704 s	CCCNC(=O)Cc1c(C)nc2nc(-c3ccccc3)nn2c1C
782 s	O=C(NCc1ccco1)c1ccc2ccnc(N3CCN(c4ccc(F)cc4)CC3)c2c1
1010 s	CC(C)N1C(=O)C(C)(C(=O)NC2CCCCC2)Oc2cccnc21 (centres undefined)
600 s	Nc1nc(Nc2ccccc2F)nc2ccccc12
999 s	CCc1nc(OCC(=O)NCc2ccc(C)cc2)c2c(C)c(C)oc2n1
884 s	O=C1COc2ccc(-c3csc(NC(=O)C4CCCCC4)n3)cc2N1

From the METLIN SMRT retention time set (Domingo-Almenara et al. 2019)
